According to ChEMBL document CHEMBL3352811, “Novel pyrazoline derivatives as bi-inhibitor of COX-2 and B-Raf in treating cervical carcinoma” (Bioorg Med Chem, 2014):

Legend:
[1] = Inhibition of mouse B-Raf V600E mutant assessed as as reduction in human N-terminal His-tagged MEK1 phosphorylation pre-incubated with compound for 1 hr
[2] = Antiproliferative activity against human WM266.4 cells after 24 hrs by MTT assay; type: functional; details: WM 266-4, 24 h
[3] = biological target: Prostaglandin G/H synthase 1 (Homo sapiens, UniProt P23219); assay: Inhibition of COX1 (unknown origin) by solid phase ELISA method
Prostaglandin G/H synthase 1, sequence (P23219 whole entry): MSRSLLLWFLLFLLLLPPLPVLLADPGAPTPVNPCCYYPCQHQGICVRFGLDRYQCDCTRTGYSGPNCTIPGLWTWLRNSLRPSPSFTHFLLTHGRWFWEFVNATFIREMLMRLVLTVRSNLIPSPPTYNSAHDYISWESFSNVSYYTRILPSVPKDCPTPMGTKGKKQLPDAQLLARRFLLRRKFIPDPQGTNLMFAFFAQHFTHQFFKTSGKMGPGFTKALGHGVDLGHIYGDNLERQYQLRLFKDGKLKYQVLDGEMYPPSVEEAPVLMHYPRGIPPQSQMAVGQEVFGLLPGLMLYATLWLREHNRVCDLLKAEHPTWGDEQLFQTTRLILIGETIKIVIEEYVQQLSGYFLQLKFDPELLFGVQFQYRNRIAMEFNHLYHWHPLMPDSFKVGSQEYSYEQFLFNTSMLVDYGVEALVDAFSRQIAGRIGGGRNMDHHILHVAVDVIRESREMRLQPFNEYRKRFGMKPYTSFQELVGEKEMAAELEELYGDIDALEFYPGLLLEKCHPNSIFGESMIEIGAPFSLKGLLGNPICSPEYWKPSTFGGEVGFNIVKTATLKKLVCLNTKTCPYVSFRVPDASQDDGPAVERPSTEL

HeLa = assay: Antiproliferative activity against human HeLa cells after 24 hrs by MTT assay; type: functional
Homo sapiens = organism: Homo sapiens; assay: Selectivity index, ratio of IC50 for COX1 (unknown origin) to IC50 for COX2 (unknown origin)
[4] = biological target: T1, Prostaglandin G/H synthase 2 (Homo sapiens, UniProt P35354); assay: Inhibition of COX2 (unknown origin) by solid phase ELISA method
T1 sequence (P35354 whole entry): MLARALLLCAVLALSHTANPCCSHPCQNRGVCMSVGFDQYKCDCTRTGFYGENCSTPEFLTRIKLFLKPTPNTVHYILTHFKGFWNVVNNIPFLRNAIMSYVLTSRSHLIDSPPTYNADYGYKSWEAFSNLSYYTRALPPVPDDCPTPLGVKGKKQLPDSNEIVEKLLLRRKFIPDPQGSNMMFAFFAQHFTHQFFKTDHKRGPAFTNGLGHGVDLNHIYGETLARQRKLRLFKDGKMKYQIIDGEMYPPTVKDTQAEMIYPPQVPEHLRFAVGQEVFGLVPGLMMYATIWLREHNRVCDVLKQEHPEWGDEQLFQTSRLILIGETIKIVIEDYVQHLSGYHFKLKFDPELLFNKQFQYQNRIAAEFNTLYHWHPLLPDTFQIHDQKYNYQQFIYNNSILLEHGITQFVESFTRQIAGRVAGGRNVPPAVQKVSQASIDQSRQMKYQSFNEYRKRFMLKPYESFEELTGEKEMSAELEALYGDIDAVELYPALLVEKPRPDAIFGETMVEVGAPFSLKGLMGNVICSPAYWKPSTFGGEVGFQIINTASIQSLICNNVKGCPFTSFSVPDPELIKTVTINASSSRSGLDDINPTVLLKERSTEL

| SMILES | IC50 [1] [µM] | GI50 [2] [µM] | IC50 [3] [µM] | GI50 (HeLa) [µM] | Ratio IC50 (Homo sapiens) | IC50 [4] [µM] |
| --- | --- | --- | --- | --- | --- | --- |
| CS(=O)(=O)c1ccc(N2N=C(C(F)(F)F)CC2c2cccc3c2OCCO3)cc1 (stereo not given) | 0.12 | 0.76 | 40.6 | 26 | – | – |
| O=S(=O)(c1ccccc1)N1N=C(C(F)(F)F)CC1c1ccc2c(c1)OCCO2 (stereo not given) | > 100 | > 500 | 106 | 58.9 | 54 | – |
| NS(=O)(=O)c1ccc(N2N=C(C(F)(F)F)CC2c2ccc3c(c2)OCCO3)cc1 (stereo not given) | 17 | 132 | 41.5 | 19.9 | > 500 | – |
| Cc1ccc(S(=O)(=O)N2N=C(C(F)(F)F)CC2c2cccc3c2OCO3)cc1 (stereo not given) | 1.11 | 1.08 | 10.4 | > 500 | – | – |
| CS(=O)(=O)c1ccc(N2N=C(C(F)(F)F)CC2c2ccc3c(c2)OCCO3)cc1 (stereo not given) | 0.89 | 1.12 | 64.9 | 23.5 | 270 | – |
| CS(=O)(=O)c1ccc(N2N=C(C(F)(F)F)CC2c2cccc3c2OCO3)cc1 (stereo not given) | 9.86 | 16.8 | 10.8 | 38.6 | 269 | – |
| O=S(=O)(c1ccccc1)N1N=C(C(F)(F)F)CC1c1cccc2c1OCCO2 (stereo not given) | 5.24 | 3.87 | 100 | 127 | 3.7 | – |
| CS(=O)(=O)c1ccc(N2N=C(C(F)(F)F)CC2c2cccc3ccccc23)cc1 (stereo not given) | 8.53 | 10.6 | 15.2 | 33.3 | – | – |
| Cc1ccc(S(=O)(=O)N2N=C(C(F)(F)F)CC2c2ccc3c(c2)OCCO3)cc1 (stereo not given) | 0.25 | 0.83 | 4.63 | 24.8 | 3.5 | – |
| NS(=O)(=O)c1ccc(N2N=C(C(F)(F)F)CC2c2ccc3c(c2)OCO3)cc1 (stereo not given) | 3.84 | 2.47 | 19 | – | > 500 | – |
| O=S(=O)(c1ccccc1)N1N=C(C(F)(F)F)CC1c1cccc2c1OCO2 (stereo not given) | 9.46 | 13.6 | 8.75 | > 500 | 0.14 | – |
| NS(=O)(=O)c1ccc(N2N=C(C(F)(F)F)CC2c2cccc3c2OCCO3)cc1 (stereo not given) | 0.15 | 0.82 | 34.5 | 26 | > 500 | – |
| O=S(=O)(c1ccccc1)N1N=C(C(F)(F)F)CC1c1ccc2c(c1)OCO2 (stereo not given) | 2.41 | 1.63 | 14.1 | 34.6 | 2.5 | – |
| CS(=O)(=O)c1ccc(N2N=C(C(F)(F)F)CC2c2ccc3ccccc3c2)cc1 (stereo not given) | 0.67 | 0.97 | 38.7 | 63.6 | 2.2 | – |
| Cc1ccc(S(=O)(=O)N2N=C(C(F)(F)F)CC2c2ccc3c(c2)OCO3)cc1 (stereo not given) | 2.26 | 1.63 | 3.72 | 28.7 | 7 | – |
| O=S(=O)(c1ccccc1)N1N=C(C(F)(F)F)CC1c1cccc2ccccc12 (stereo not given) | 1.24 | 1.18 | 17.6 | > 500 | 0.26 | – |
| NS(=O)(=O)c1ccc(N2N=C(C(F)(F)F)CC2c2cccc3c2OCO3)cc1 (stereo not given) | 1.77 | 1.32 | 10 | 26.2 | 197 | – |
| O=S(=O)(c1ccccc1)N1N=C(C(F)(F)F)CC1c1ccc2ccccc2c1 (stereo not given) | > 100 | > 500 | 7.23 | > 500 | 0.04 | 174 |
| CCCS(=O)(=O)Nc1ccc(F)c(C(=O)c2c[nH]c3ncc(-c4ccc(Cl)cc4)cc23)c1F [VEMURAFENIB] | 0.06 | – | – | – | – | – |
| Cc1ccc(S(=O)(=O)N2N=C(C(F)(F)F)CC2c2cccc3ccccc23)cc1 (stereo not given) | 1.01 | 1.06 | 153 | > 500 | 1.7 | – |
| NS(=O)(=O)c1ccc(N2N=C(C(F)(F)F)CC2c2cccc3ccccc23)cc1 (stereo not given) | 8.23 | 8.91 | 17 | 29.5 | – | – |
| Cc1ccc(S(=O)(=O)N2N=C(C(F)(F)F)CC2c2ccc3ccccc3c2)cc1 (stereo not given) | 0.85 | 1.01 | > 500 | > 500 | 10.7 | – |
| CS(=O)(=O)c1ccc(N2N=C(C(F)(F)F)CC2c2ccc3c(c2)OCO3)cc1 (stereo not given) | 0.49 | 0.89 | 57.5 | 27.6 | 411 | – |
| Cc1ccc(S(=O)(=O)N2N=C(C(F)(F)F)CC2c2cccc3c2OCCO3)cc1 (stereo not given) | 1.74 | 1.34 | 15.4 | > 500 | 0.01 | > 500 |
| O=c1[nH]cc(F)c(=O)[nH]1 [FLUOROURACIL] | – | 28.8 | – | 30.2 | – | – |
| NS(=O)(=O)c1ccc(N2N=C(C(F)(F)F)CC2c2ccc3ccccc3c2)cc1 (stereo not given) | 1.15 | 1.09 | 19 | 49.8 | 1.3 | – |
